Laboratory results reported in patent US9376406B2, “uPAR-uPA interaction inhibitors and methods for treating cancer” (Indiana University Research and Technology Corporation, priority 2011, dated 2016).
“Also recorded” adds a separate entry of the source.

Legend:
[1] = system: H1299 cells; assay: Invasion assay (Matrigel invasion chamber); assay type: cell-based, human
Experimental: (§1) Invasion Assay. Invasion assays are performed using the Biocoat Matrigel invasion chamber (BD Biosciences, Bedford, Mass.) according to the manufacturer's protocol. The undersurface of the inserts were coated with 30 ng/μl of fibronectin at 4° C. overnight. The filters were equilibrated with 0.5 ml serum-free medium for 2 h. After 4 h of serum starvation, cells were harvested and 5×10^4 cells/500 μl were plated onto the upper chamber of a Transwell filter in medium containing 0.1% FBS and the indicated compounds. 500 μl of 10% FBS medium containing the same amount of compounds or DMSO control were added to the lower chamber. After a 24 h incubation at 37° C. in 5% CO2, the filters were fixed and the number of cells that had invaded was determined as described for the migration assay.
(§2) Testing of the effects of IPR-465 on processes critical for metastasis in cell culture, starting with invasion, was undertaken. A Boyden chamber apparatus was used and results are shown in FIG. 3(a), where the bar groups correspond, from left to right, to H1299 invasion, H1299 cytotoxicity, MDA-MB-231 invasion, MDA-MB-231 cytotoxicity, and in FIG. 3(b), where the bar groups correspond, from left to right, to H1299 Boyden Chamber, H1299 wound healing, H1299 cytotoxicity, MDA-MB-231 Boyden Chamber, MDA-MB-231 wound healing, MDA-MB-231 cytotoxicity.
(§3) Ten fields of unit area on each membrane were counted for cell numbers (magnification, 200×). […] The effect of the compound appears to be more pronounced in MDA-MB-231 cells compared with H1299. The level of toxicity of the compounds is measured at each concentration within the timescale of the invasion experiment to ensure that the observed effects are not due to cytotoxicity (FIG. 3(a)).
(§4) MDA-MB-231 cells were transfected with siRNAs for uPAR, control siRNA (control) or with transfection reagent only (mock). After 48 h, cells were lysed and analysed by immunoblotting.

[2] = system: MDA-MB-231 cells; assay: Invasion assay (Matrigel invasion chamber); assay type: cell-based, human
Experimental: as §1, §2, §3, §4

[3] = system: H1299 cells; assay: Transwell (Boyden chamber) migration assay; assay type: cell-based, human
Experimental: (§5) Transwell Migration Assay. A 24 well transwell plates (Costar, Corning, N.Y.) were coated with fibronectin. After 4 h of serum starvation, medium containing the same amount of compounds or DMSO were added to the upper chamber and incubated at 37° C. for 8 h. The number of migrated cells was counted in 10 separate 200×fields and averaged over three independent experiments. Cytotoxicity of the compounds on the cells was measured at the same concentrations used in the migration assay during the same incubation time. MTT was added 2 h before measuring.
as §5, with “A” for “Transwell Migration Assay. A”, “30 ng/μl of fibronectin at 4° C. overnight. 500 μl of 10% FBS RPMI-1640 medium containing compounds or 1% DMSO control was added to the lower chamber.” for “fibronectin.”, “starvation, 5×10^4 cells in 250 μl of 0.1% FBS” for “starvation,”, “h. […]” for “h.”, “time,” for “time.”, “measuring. […]” for “measuring.”

[4] = system: MDA-MB-231 cells; assay: Transwell (Boyden chamber) migration assay; assay type: cell-based, human
Experimental: as §5
as §5, with “A” for “Transwell Migration Assay. A”, “30 ng/μl of fibronectin at 4° C. overnight. 500 μl of 10% FBS RPMI-1640 medium containing compounds or 1% DMSO control was added to the lower chamber.” for “fibronectin.”, “starvation, 5×10^4 cells in 250 μl of 0.1% FBS” for “starvation,”, “h. […]” for “h.”, “time,” for “time.”, “measuring. […]” for “measuring.”

[5] = system: H1299 cells; assay: Adhesion assay; assay type: cell-based, human; conditions: H1299, fibronectin- and vitronectin-coated wells
Experimental: (§6) Adhesion Assay. 96-well plates were coated with 15 ng/μl fibronectin (Sigma, St. Louis, Mo.) at 4° C. overnight, then blocked with 0.5% BSA in PBS for 1 h. After starving with serum-free medium for 3 h, H1299 or MDA-MB-231 (2.5×10^5 cells/ml) were trypsinized and suspended in 100 μl of 0.1% FBS medium with various concentrations of uPAR compounds or DMSO control at 37° C. for 90 min. Medium was then carefully suctioned out from each well. Each well was washed three times with PBS. MTT-assay was used to determine the number of remaining cells (adherent cells).
(§7) The numbers of attached cells were quantified by MTT assay. Adherent cells are also quantified with fluorescence. […] The lack of inhibition was found both on fibronectin- and vitronectin-coated wells.

[6] = system: MDA-MB-231 cells; assay: Adhesion assay; assay type: cell-based, human; conditions: MDA-MB-231, fibronectin- and vitronectin-coated wells
Experimental: as §6, §7

[7] = system: H1299 cells; assay: Wound healing assay; assay type: cell-based; conditions: Homo sapiens, NCI-H1299, read-out: migration IC50
Experimental: (§8) Wound Healing Assay. Confluent cell monolayers in 12-well plates were wounded by scraping with a micropipette tip. The cells were washed and then cultured in complete media containing the compounds. The degree of wound closure was assessed in three randomly chosen regions by measuring the distance between the wound edges just after wounding and after 16 h under Nikon Diaphot 300 microscope.
(§9) Without being bound by theory, it is believed that, to invade neighboring tissue, cells must acquire additional motility, although invasion and migration may proceed through different mechanisms. […] The first uses the Boyden chamber apparatus to assess the effect of compound on migration primarily mediated by chemotaxis. […] The other approach to test for effects on migration was the wound healing assay, which probes migration mediated by a concentration gradient established by the wound. It is also not as sensitive to potential cytotoxic effects.

[8] = system: MDA-MB-231 cells; assay: Wound healing assay; assay type: cell-based; conditions: Homo sapiens; MDA-MB-231, wound healing; read-out: migration IC50
Experimental: as §8, §9

`CC1CC(C)CN(c2cc(Nc3ccccc3C(=O)O)c3c4c(onc24)-c2ccccc2C3=O)C1` (stereo not drawn) [IPR-456] was tested, and the “number of cells able to invade through the membrane” value ([1]; H1299) was “dose-dependent reduction”, the influence on invasion ([1]; H1299 with siRNA knockdown of uPAR) was “no additional influence on invasion” and the IC50 ([1]; Homo sapiens, NCI-H1299) was roughly 50 µM. For the same molecule, the IC50 ([2]; Homo sapiens, MDA-MB-231) was roughly 50 µM, the “number of cells able to invade through the membrane” value ([2]; MDA-MB-231) was “dose-dependent reduction” and the influence on invasion ([2]; MDA-MB-231 with siRNA knockdown of uPAR) was “no additional influence on invasion”. The “migration, Boyden chamber” value [3] was “blocked migration in a dose-dependent manner”, the “migration, Boyden chamber” value [4] was “blocked migration in a dose-dependent manner” and the cell adhesion [5] was “no effect on cell adhesion; also recorded: lack an effect”. The cell adhesion [6] was “no effect on cell adhesion; also recorded: lack an effect”, the IC50 [7] was roughly 150 µM and the IC50 [8] was roughly 150 µM.
